Reference: US20230381170A1, “METHOD FOR TREATING ALS/FTD THROUGH DEGRADATION OF RNA REPEAT EXPANSION” (University of Florida Research Foundation, Incorporated, priority 2020, published 2023)

Legend:
Poly(GP) = assay: poly(GP) in c9ALS iPSC-derived spinal neurons; assay type: cell-based, human
Protocol: iPSCs were differentiated into spinal neuron cells using a previously the previously described direct induced motor neuron (diMNs) differentiation protocol (58) with modifications. Briefly, iPSCs were plated into Matrigel-coated 100 mm dishes (30-40% confluence). Neuroepithelial induction was performed by replacing the iPSC maintenance medium with Stage 1 medium [47.5% IMDM (Iscove's Modified Dulbecco's Medium) medium, 47.5% F12 medium, 1% NEAA (Non-Essential Amino Acid) (Life Technologies), 2% B27 (Invitrogen), 1% N2, 1% PSA (Penicillin-Streptomycin-Amphotericin), 0.2 μM LDN193189 (Stemgent), 10 μM SB431542 ([…] Technologies) and 3 μM CHIR99021 (Sigma-Aldrich)]. After daily medium changes for 6 days, cells were detached with Accutase and seeded into 6-well plates (1.5×10^6 cells/well) in 3 mL Stage 2 medium. […]
Measuring Poly(GP) Levels by Electrochemiluminescence. […] Protein concentration was measured by Pierce™ BCA Protein Assay Kit.
Levels of poly(GP) were measured using Meso Scale Discovery MSD Gold 96-well Streptavidin SECTOR plates. […] The conjugated antibodies were desalted with 40K Zeba™ Spin Desalting Columns (Thermo Fisher Scientific), and their concentrations were determined by Pierce™ BCA Protein Assay Kit. […]

Nup98 = Nup98 by structured illumination microscopy in patient-derived iPSNs; assay type: cell-based, human; conditions: 50 nM
Protocol: Nuclei Isolation and Super Resolution Structured Illumination Microscopy. iPSC-derived spinal neurons were generated according to the previously published diMNs protocol (37). On day 15 and 18 of differentiation, […] G4C2 repeat-targeting ASO was added to media as previously described (59). For compound treatment, 50 nM 7 was added to media on days 15, 18, 21, 24, 27, and 30 of differentiation. On day 32 of differentiation, nuclei isolation was performed using the Nuclei Pure Prep Nuclei Isolation Kit (Sigma Aldrich) as previously described (68). Isolated nuclei were spun onto collagen coated slides and immunostained following standard protocols as previously described (68). Primary antibodies: 1:250 rat anti-Nup98 (Abcam), 1:500 chicken anti-NeuN (Millipore); secondary antibodies: […] Alexa 488 (Invitrogen), goat anti-chicken Alexa 647 (Invitrogen). NeuN positive nuclei were imaged by super resolution structured illumination microscopy (SIM) using a Zeiss ELYRA S.1 as previously described (14). Next, 50 nuclei per iPSC line/treatment group were analyzed using the 3D suite plugin in FIJI. The average number of spots from the 50 nuclei for each cell line and treatment group was used for statistical analyses. […] Quantification is presented as violin plots to represent the full variability of all nuclei analyzed.

r(G4C2)exp = assay: ASO-Bind-Map target profiling in patient-derived LCLs; assay type: cell-based, human; conditions: ASO 100 nM
Protocol: Target profiling by ASO-Bind-Map. LCLs were first treated with compounds overnight at 37° C. and then transfected with G4C2-ASO (100 nM; Table 3). The cells were then incubated for another 24 h at 37° C. followed by extraction of total RNA as described above. The levels of various fragments were then measured by RT-qPCR as described above.

Human Topoisomerase II = molecular target: T1, Human Topoisomerase II (Homo sapiens, UniProt P11388); assay: Topoisomerase assay; assay type: biochemical
T1 construct: purchased TopoGen
Protocol: Topoisomerase Assay. Topoisomerase inhibition was assessed in vitro using the TopoGen Human Topoisomerase II Assay Kit per manufacturer's recommended protocol. Samples were run on a 1% agarose gel post-stained with ethidium bromide. Topoisomerase inhibition was quantified as a percentage of linearized DNA compared to the positive control compound VP-16 supplied.

T1 sequence (P11388 whole entry): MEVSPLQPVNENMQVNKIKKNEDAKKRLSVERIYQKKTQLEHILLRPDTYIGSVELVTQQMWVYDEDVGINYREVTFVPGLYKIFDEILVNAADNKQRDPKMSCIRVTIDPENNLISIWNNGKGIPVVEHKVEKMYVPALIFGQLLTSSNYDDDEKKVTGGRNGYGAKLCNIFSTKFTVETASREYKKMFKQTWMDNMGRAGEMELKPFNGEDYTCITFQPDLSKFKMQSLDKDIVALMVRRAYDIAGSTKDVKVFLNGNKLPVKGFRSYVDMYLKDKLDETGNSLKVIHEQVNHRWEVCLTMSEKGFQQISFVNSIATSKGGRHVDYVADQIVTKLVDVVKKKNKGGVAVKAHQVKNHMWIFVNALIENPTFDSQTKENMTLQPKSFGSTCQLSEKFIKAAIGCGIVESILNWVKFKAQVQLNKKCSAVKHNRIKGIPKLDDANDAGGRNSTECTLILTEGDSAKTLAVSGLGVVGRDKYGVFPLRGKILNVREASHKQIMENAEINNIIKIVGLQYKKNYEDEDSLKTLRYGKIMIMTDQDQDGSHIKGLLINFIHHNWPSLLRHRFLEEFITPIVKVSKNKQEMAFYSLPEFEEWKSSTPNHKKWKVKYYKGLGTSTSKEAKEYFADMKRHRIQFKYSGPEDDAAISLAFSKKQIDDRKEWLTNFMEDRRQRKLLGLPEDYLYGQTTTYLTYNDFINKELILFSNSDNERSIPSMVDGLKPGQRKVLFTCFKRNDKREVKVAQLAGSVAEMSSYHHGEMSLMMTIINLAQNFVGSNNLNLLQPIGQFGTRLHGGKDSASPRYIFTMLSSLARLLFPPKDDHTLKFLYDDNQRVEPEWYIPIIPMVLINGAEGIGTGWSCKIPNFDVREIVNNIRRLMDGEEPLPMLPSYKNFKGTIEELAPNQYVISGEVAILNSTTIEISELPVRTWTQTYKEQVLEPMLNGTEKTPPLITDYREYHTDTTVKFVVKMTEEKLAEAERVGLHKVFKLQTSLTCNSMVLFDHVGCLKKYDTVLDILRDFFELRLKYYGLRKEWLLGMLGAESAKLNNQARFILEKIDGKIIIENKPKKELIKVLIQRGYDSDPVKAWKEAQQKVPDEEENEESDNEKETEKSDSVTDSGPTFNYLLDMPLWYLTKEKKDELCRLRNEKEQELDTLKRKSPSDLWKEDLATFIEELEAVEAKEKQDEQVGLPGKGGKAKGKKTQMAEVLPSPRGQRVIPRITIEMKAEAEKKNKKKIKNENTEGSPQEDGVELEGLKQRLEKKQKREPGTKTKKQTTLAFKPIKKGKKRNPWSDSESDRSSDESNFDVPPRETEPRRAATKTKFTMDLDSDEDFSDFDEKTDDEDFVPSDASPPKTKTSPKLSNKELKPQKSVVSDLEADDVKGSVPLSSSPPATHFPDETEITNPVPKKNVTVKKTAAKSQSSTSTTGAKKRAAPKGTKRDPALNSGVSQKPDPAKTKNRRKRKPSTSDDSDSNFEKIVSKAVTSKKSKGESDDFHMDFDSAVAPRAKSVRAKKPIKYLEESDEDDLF

| SMILES | abundance of poly(GP) (Poly(GP)) | Nup98 abundance (Nup98) | intron 1 levels of C9orf72 mRNA in competition with G4C2-ASO (r(G4C2)exp) | topoisomerase activity in vitro (Human Topoisomerase II) |
| --- | --- | --- | --- | --- |
| CCOC(=O)C1=C(Nc2ccccc2)S/C(=C\c2ccc(OCCOCCOCCOCCNC(=O)CCC(=O)N(CCOCCOCCOc3ccc4[nH]c5c(C)c6ccncc6c(C)c5c4c3)CCOCCOCCOc3ccc4[nH]c5c(C)c6ccncc6c(C)c5c4c3)c(O)c2)C1=O [Compound 7] | significant (P<0.05) reduction | reversed the loss of Nup98 | – | – |
| Cc1c2ccncc2c(C)c2c1[nH]c1ccc(OCCOCCOCCNCCOCCOCCOc3ccc4[nH]c5c(C)c6ccncc6c(C)c5c4c3)cc12 [Compound 3] | – | – | dose-dependent increase | did not inhibit |
